Results published in patent publication US20260258402A1, “DEVICE FOR DETERMINING MOLECULAR INTERACTIONS” (Depixus SAS, priority 2023, published 2026).

B1: APFL: APFL protein that bridges Ku70/80 complexes in the NHEJ complex (protein, UniProt Q8IW19 1-511, looked up)
Aprataxin and PNK-like factor: MSGGFELQPRDGGPRVALAPGETVIGRGPLLGITDKRVSRRHAILEVAGGQLRIKPIHTNPCFYQSSEKSQLLPLKPNLWCYLNPGDSFSLLVDKYIFRILSIPSEVEMQCTLRNSQVLDEDNILNETPKSPVINLPHETTGASQLEGSTEIAKTQMTPTNSVSFLGENRDCNKQQPILAERKRILPTWMLAEHLSDQNLSVPAISGGNVIQGSGKEEICKDKSQLNTTQQGRRQLISSGSSENTSAEQDTGEECKNTDQEESTISSKEMPQSFSAITLSNTEMNNIKTNAQRNKLPIEELGKVSKHKIATKRTPHKEDEAMSCSENCSSAQGDSLQDESQGSHSESSSNPSNPETLHAKATDSVLQGSEGNKVKRTSCMYGANCYRKNPVHFQHFSHPGDSDYGGVQIVGQDETDDRPECPYGPSCYRKNPQHKIEYRHNTLPVRNVLDEDNDNVGQPNEYDLNDSFLDDEEEDYEPTDEDSDWEPGKEDEEKEDVEELLKEAKRFMKRK

Columns and labels:
[1] = target: E3 ligase CEREBLON (in complex with its binding partner DDB1), the neo-target GSPT1 (Homo sapiens, UniProt P15170+Q96SW2); assay: Tertiary complex formation between CRBN/DDB1 and GSPT1 with a molecular glue, on the nucleic acid scaffold (force cycles); settings: for formation / stabilization of the tertiary complex CEREBLON-DDB1 / GSPT1 in the presence of the molecular glue: FIG. 27 and 28, force reduced to 0.01 pN to allow interaction
Chain of E3 ligase CEREBLON (in complex with its binding partner DDB1), the neo-target GSPT1 (Q96SW2 whole entry): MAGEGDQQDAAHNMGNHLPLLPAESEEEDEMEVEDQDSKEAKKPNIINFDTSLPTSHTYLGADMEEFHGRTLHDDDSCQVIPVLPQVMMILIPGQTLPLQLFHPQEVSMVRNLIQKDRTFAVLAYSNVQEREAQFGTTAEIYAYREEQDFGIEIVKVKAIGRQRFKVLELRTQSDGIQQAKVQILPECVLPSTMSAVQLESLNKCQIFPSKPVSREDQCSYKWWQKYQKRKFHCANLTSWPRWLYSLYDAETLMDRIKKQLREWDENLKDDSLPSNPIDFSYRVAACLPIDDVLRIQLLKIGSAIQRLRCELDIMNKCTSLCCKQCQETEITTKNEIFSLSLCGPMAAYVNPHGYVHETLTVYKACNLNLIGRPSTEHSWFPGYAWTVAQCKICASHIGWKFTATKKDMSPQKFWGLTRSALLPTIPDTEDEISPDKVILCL
Chain of E3 ligase CEREBLON (in complex with its binding partner DDB1), the neo-target GSPT1 (Q16531 whole entry partner): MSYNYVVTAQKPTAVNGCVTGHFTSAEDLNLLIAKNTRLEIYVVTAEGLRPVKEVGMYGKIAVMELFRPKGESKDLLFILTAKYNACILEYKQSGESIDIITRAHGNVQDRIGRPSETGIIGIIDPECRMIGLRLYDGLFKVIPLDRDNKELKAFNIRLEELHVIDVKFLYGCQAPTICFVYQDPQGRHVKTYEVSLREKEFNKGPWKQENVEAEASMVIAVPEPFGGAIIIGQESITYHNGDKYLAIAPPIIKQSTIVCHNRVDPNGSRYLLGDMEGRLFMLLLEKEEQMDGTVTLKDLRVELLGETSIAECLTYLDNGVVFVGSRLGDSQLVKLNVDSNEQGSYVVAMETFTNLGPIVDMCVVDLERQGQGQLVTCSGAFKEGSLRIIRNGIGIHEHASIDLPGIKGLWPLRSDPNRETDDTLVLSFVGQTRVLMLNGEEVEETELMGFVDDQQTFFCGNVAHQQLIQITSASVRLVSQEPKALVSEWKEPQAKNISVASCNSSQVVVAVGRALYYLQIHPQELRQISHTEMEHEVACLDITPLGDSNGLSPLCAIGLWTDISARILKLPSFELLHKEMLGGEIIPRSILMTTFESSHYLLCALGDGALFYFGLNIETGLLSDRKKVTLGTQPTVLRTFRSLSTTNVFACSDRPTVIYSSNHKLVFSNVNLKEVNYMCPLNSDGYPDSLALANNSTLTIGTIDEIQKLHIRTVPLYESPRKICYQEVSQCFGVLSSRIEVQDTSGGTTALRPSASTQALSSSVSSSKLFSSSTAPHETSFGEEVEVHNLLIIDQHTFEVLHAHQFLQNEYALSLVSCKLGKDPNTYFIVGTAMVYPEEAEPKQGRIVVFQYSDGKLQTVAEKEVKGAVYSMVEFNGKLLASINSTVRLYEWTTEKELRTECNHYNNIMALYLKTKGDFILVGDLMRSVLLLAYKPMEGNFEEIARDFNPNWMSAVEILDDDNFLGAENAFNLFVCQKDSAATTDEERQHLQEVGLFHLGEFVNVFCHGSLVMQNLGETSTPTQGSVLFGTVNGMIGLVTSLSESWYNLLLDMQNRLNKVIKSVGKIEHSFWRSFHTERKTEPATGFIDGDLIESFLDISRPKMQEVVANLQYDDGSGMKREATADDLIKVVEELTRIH
Chain of E3 ligase CEREBLON (in complex with its binding partner DDB1), the neo-target GSPT1 (P15170 whole entry): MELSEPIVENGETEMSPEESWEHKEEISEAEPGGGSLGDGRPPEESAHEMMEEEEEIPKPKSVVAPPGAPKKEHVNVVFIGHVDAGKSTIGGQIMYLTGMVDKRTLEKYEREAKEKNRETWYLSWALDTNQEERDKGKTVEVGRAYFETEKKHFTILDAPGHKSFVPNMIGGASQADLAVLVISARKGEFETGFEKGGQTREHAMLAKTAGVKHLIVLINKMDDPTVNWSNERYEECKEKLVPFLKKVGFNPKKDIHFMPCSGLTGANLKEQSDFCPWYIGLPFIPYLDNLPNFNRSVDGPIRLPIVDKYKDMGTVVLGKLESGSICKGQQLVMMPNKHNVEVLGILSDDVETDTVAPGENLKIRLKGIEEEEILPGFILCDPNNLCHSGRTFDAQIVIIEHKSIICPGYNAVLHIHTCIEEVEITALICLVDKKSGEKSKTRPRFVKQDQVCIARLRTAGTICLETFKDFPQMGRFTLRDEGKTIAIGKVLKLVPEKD
Procedure: (§3) Briefly, a reference elongation length of a nucleic acid scaffold present in a flow cell was determined at a constant force. Next, a single stranded polynucleotide containing the complementary sequence of the first molecule binding sequence as well as an amine group at the 5′ end (SEQ ID NO: 23) was coupled to candidate protein (CRBN and its binding partner DDB1 that form the E3 ligase complex) by a covalent conjugation (esterification via EDC). In parallel, a second single stranded polynucleotide containing the complementary sequence of the second molecule binding sequence as well as an amine group at the 3′ end (SEQ ID NO: 34) was coupled to candidate protein (GSTP1 neo-substrat of CRBN) by a covalent conjugation (esterification via EDC). A first candidate molecule conjugated to a first polynucleotide and a second candidate molecule covalently conjugated to a second polynucleotide are sequentially injected into the flow cell to anchor them on to the nucleic acid scaffold and form a screening nucleic acid scaffold (FIGS. 27 and 28). Then, a force of 2 pN was applied to determine the maximal elongation length. The force was then reduced to 0.01 pN to allow the two proteins to interact. If the two candidate molecules have binding interaction between them, upon increasing the force back to 2 pN, the elongation observed would be less than the full extension of the screening nucleic acid scaffold. If the two candidate molecules have no binding interaction between them or weaker binding interaction between them than the applied force, the nucleic acid scaffold would fully stretch. The two proteins are not believed to have a native interaction. […] Various concentration of compound can be performed to measure the Kon and Koff of interaction in presence of the compound.

[2] = tested on: double stranded blunt end substrates; assay: NHEJ complex formation on two double stranded blunt end substrates on the scaffold (force cycles); type: binding; settings: for role in the complex formed on the blunt end adapters: FIG. 25B, Ku70/80 and APFL injected together, 2 pN
Procedure: The system described in Example 1 and Example 2 was used for determining binding kinetics between two substrates and proteins that form a Non-Homologous End Joining (NHEJ) complex. The NHEJ complex recognizes double stranded blunt ends and repair these lesions in the cell. Accordingly, two substrates, each comprising a single stranded carrier polynucleotide and a candidate molecule comprising a double stranded blunt end were prepared, wherein the single stranded carrier polynucleotide was complementary to a molecule binding sequence of a nucleic acid scaffold. The double stranded blunt end was prepared by annealing twice two oligos together (SEQ ID NOS: 14 and 15, as well as SEQ ID NOS: 17 and 18 at 10 μM each in PBS).
(§1) Because each of the proposed sequences contained the glue sequence for first and second molecule binding sequence respectively, the substrates could be directed to a specific location on the nucleic acid scaffold. Accordingly, the two substrates for the NHEJ complex were anchored to two molecule binding sequences of the nucleic acid scaffold to form a screening nucleic acid scaffold. The excess substrates were washed away. A reference elongation length of a screening nucleic acid scaffold was determined by applying 2 pN force in the absence of the substrates.
(§2) Next, two candidate proteins, KU70/80 complex as well as the APFL protein together into PBS 1X, were injected within the flow cell. The flow was stop and force cycles experiments were initiated. Blockage traces were recorded at 0.1 pN and 2 pN. At 0.1 pN force, the screening nucleic acid scaffold was unstructured, which allowed the two blunt ends to be brought in close proximity. […] Because the method was a non-destructive process, the force cycles were repeated multiple times to further probe the interaction.
The system described in Example 1 and Example 2 was used for determining binding kinetics between two substrates and proteins that form a Non-Homologous End Joining (NHEJ) complex. The NHEJ complex recognizes double stranded blunt ends and repairs these lesions in the cell. Accordingly, two substrates, each comprising a single stranded carrier polynucleotide and a candidate molecule comprising a double stranded blunt end were prepared, wherein the single stranded carrier polynucleotide was complementary to a molecule binding sequence of a nucleic acid scaffold. The two double stranded blunt end adapters were prepared by annealing in two separate tubes two oligos together (SEQ ID NOS: 14 and 15, as well as SEQ ID NOS: 17 and 18 at 10 μM each in a buffer containing: 50 mM NaCl, 10 mM Tris-HCl, 10 mM MgCl2, 1 mM DTT at pH 7.9 @ 25° C.).
as §1, with “Because” for “Because each of”, “system was based on” for “sequences contained”, “protein complex recognizing blunt ends DNA,” for “glue sequence for first and second molecule binding sequence respectively,”, “applying force cycles at three step forces: 0.01,” for “applying”, “2 and 20” for “2”
as §2, with “a buffer containing: 20 mM Hepes-KOH PH7.8, 100 mM KCL, 5 mM MgCl2, 1 mM DTT, 0.5 mg/mL BSA, and they” for “PBS 1X,”, “Force cycles” for “Blockage traces”, “were the force varies between three plateau: 0.01 pN, 2” for “at 0.1”, “20 pN (FIG. 25A).” for “2 pN.”, “0.01” for “0.1”

[3] = target: E3 ligase CEREBLON (in complex with its binding partner DDB1), the neo-substrate IKAROS1 (Homo sapiens, UniProt Q13422+Q96SW2)
Chain of E3 ligase CEREBLON (in complex with its binding partner DDB1), the neo-substrate IKAROS1 (Q13422 whole entry): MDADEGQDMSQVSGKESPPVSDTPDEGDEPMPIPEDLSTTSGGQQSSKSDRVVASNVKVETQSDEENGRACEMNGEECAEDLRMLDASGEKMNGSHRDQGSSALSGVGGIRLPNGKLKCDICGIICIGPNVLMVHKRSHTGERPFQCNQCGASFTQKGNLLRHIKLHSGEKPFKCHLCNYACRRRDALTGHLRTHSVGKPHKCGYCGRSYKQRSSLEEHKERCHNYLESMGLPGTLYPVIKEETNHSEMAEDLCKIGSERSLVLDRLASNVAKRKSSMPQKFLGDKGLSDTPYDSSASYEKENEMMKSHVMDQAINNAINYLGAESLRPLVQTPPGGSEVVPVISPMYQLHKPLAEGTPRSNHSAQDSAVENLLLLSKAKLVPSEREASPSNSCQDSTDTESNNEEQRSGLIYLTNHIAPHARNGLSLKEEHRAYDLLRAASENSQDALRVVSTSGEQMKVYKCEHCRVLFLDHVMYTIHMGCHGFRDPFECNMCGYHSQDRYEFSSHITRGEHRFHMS
Chain of E3 ligase CEREBLON (in complex with its binding partner DDB1), the neo-substrate IKAROS1 (Q16531 whole entry, further chain): as the sequence (Q16531 whole entry partner) above
Chain of E3 ligase CEREBLON (in complex with its binding partner DDB1), the neo-substrate IKAROS1 (Q96SW2 whole entry): as the sequence (Q96SW2 whole entry) above
Procedure: as §3

[4] = Example 3, both proteins injected together in PBS 1X, force cycles 0.1 pN and 2 pN
[5] = Example 12, both proteins injected together, force cycles 0.01, 2 and 20 pN

| Molecule | formation / stabilization of the tertiary complex CEREBLON-DDB1 / GSPT1 in the presence of the molecular glue [1] | blockage of scaffold stretching (complex on the two blunt end substrates) [2, 4] | blockage of scaffold stretching (complex on the two blunt end substrates) [2, 5] | role in the complex formed on the blunt end adapters [2] | also measured |
| --- | --- | --- | --- | --- | --- |
| Cc1ccc(NC(=O)NCc2ccc3c(c2)CN(C2CCC(=O)NC2=O)C3=O)cc1Cl (centres unmarked) [CC885] | greatly stabilizes the complex | – | – | – | force needed to break the tertiary complex ([1]; FIG. 27, CEREBLON-DDB1 / GSPT1): 20 pN; time to reform the complex when the force is reduced to 0.01 pN ([1]; FIG. 27, after breaking at 20 pN): few second |
| KU70/80: KU70/80 complex, which binds at the double stranded breaks (NHEJ) | – | one or more transient blockages were observed | one or more transient blockages were observed | form at the blunt end of both adapters | – |
| O=C1CCC(N2C(=O)c3ccccc3C2=O)C(=O)N1 (centres unmarked) [thalidomide] | possible to observe formation of the tertiary complex | – | – | – | strength of the tertiary complex interaction (in words) ([1]; FIG. 28, compared with CC885): the interaction is weaker and can be broken even at low force |
| Nc1cccc2c1C(=O)N(C1CCC(=O)NC1=O)C2=O (centres unmarked) [pomalidomide] | – | – | – | – | force the tertiary complex can sustain ([3]; FIG. 29): up to 2 pN; formation of the tertiary complex CEREBLON-DDB1 / IKAROS1 upon addition of the molecular glue ([3]; FIG. 29): strong tertiary complex is formed; interaction between CRBN E3 ligase and IKZF1 in presence of the compound ([3]; compound at 1 nM): the interaction was observed |
| B1 | – | one or more transient blockages were observed | one or more transient blockages were observed | bridges these complexes | – |
